Reference: ChEMBL document CHEMBL2074571, “The mouse Bcrp1/Mxr/Abcp gene: amplification and overexpression in cell lines selected for resistance to topotecan, mitoxantrone, or doxorubicin” (Cancer Res, 1999)

What was measured:
Type in all cases: functional, cell-based
[1] = target: T1, Broad substrate specificity ATP-binding cassette transporter ABCG2 (Mus musculus, UniProt Q7TMS5); experiment: TP_TRANSPORTER: increase in mitoxantrone intracellular accumulation (Mitoxantrone: 20 uM, GF120918: 2 uM) in MEF3.8, M32 and T6400 cells; conditions: mef3.8;m32;t6400, 2 µM
T1 sequence (Q7TMS5 whole entry): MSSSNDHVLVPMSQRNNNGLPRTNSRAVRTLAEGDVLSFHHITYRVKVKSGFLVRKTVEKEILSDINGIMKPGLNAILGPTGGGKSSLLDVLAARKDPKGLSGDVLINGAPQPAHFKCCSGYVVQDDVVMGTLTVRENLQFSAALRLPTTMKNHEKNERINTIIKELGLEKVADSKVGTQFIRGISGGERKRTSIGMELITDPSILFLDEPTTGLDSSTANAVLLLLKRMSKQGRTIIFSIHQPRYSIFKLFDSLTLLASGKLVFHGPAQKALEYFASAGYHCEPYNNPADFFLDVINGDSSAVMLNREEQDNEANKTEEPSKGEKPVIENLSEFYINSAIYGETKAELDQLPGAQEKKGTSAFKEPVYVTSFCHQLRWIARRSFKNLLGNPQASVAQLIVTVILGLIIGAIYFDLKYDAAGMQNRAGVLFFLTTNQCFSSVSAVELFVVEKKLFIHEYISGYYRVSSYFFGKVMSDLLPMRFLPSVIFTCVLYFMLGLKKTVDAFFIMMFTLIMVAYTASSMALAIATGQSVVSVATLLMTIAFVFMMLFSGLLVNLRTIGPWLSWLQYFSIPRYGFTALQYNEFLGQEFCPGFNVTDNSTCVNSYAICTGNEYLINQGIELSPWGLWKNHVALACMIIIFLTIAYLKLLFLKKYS

[2] = target: T1, Broad substrate specificity ATP-binding cassette transporter ABCG2; experiment: TP_TRANSPORTER: increase in mitoxantrone intracellular accumulation (Mitoxantrone: 20 uM, GF120918: 2 uM) in KOT52 and D320 cells; conditions: kot52;d320, 2 µM
[3] = target: T1, Broad substrate specificity ATP-binding cassette transporter ABCG2; experiment: TP_TRANSPORTER: cell accumulation in MEF3.8, M32 and T6400 cells; conditions: mef3.8;m32;t6400
[4] = target: T1, Broad substrate specificity ATP-binding cassette transporter ABCG2; experiment: TP_TRANSPORTER: cell accumulation in KOT52 and D320 cells

SMILES	Activity [1]	Activity [2]	Activity [3]	Activity [4]
COc1cc2c(cc1OC)CN(CCc1ccc(NC(=O)c3cccc4c(=O)c5cccc(OC)c5[nH]c34)cc1)CC2.Cl [ELACRIDAR HYDROCHLORIDE]	inhibitor [+]	inhibitor [+]	–	–
O=C1c2c(O)ccc(O)c2C(=O)c2c(NCCNCCO)ccc(NCCNCCO)c21 [MITOXANTRONE]	–	–	substrate [+]	substrate [+]
